The values below come from PMC5977019, “NMR, Novel Pharmacological and In Silico Docking Studies of Oxyacanthine and Tetrandrine: Bisbenzylisoquinoline Alkaloids Isolated from Berberis glaucocarpa Roots” (Journal of Analytical Methods in Chemistry, 2018).

For assay [1], the target named is T1, urease (jack bean) (Canavalia ensiformis, UniProt P07374). In words: indophenol urease assay (ammonia production, […] nm). It is filed as biochemical.
The target of assay [2] is T1, urease (jack bean). Kind of assay: indophenol urease assay (ammonia production, […] nm), standard inhibitor. It is filed as biochemical. As to conditions: read-out: IC50 ± SEM (μg/mL) (converted).

T1 sequence (P07374 whole entry, looked up): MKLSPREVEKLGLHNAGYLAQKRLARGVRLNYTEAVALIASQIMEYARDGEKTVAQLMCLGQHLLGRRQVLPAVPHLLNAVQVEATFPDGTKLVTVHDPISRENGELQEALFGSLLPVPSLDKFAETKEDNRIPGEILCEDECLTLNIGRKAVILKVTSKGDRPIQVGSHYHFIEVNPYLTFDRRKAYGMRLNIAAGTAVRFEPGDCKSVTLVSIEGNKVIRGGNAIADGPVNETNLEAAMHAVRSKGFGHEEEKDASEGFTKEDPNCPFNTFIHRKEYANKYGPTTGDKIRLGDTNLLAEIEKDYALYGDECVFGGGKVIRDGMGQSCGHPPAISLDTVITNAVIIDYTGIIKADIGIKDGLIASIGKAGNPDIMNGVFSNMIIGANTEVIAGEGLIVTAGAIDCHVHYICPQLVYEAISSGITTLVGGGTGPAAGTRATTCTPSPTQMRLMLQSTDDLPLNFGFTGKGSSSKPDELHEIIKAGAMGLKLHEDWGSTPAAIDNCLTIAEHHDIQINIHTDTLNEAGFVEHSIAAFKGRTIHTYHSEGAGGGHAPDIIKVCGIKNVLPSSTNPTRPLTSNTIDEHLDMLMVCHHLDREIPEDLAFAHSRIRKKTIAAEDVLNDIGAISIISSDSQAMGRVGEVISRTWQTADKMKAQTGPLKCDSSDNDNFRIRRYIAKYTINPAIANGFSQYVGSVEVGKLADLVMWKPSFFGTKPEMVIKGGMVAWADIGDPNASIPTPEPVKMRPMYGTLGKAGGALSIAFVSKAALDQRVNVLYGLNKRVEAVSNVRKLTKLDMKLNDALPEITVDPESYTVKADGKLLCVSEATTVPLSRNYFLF

In the case of `COc1cc2c3cc1Oc1c(OC)c(OC)cc4c1[C@H](Cc1ccc(cc1)Oc1cc(ccc1O)C[C@H]3N(C)CC2)N(C)CC4` [compound 1, oxyacanthine], the IC50 against urease (jack bean) [1] is 10.4 µM.

For `COc1ccc2cc1Oc1ccc(cc1)C[C@H]1c3cc(c(OC)cc3CCN1C)Oc1c(OC)c(OC)cc3c1[C@H](C2)N(C)CC3` [compound 2, tetrandrine], the IC50 on urease (jack bean) [1] (read-out: IC50 ± SEM (μg/mL) (converted)) was 8.85 µM.

For `NC(N)=S` [thiourea], the IC50 on urease (jack bean) [2] was 215 µM.
